PubChem BioAssay (NCI)
Values joined by “and” are separate entries in the source; they are usually repeats but may differ in a detail not shown here. Equal values may be shown once.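 Method: 48-hour compound exposure of cells in 96-well plates, five concentrations, linear interpolation of endpoints. At the GI50, growth is halved. Definition used: TGI = concentration required for complete inhibition of growth.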

Assays:
Test in all cases: NCI anticancer screen, dose series, 48 h
NCI-H23 lung = system: NCI-H23 lung
K-562 leukemia = system: K-562 leukemia
SNB-75 CNS = system: SNB-75 CNS
786-0 renal = system: 786-0 renal
SW-620 colon = system: SW-620 colon
OVCAR-4 ovarian = system: OVCAR-4 ovarian
KM12 colon = system: KM12 colon
HCT-15 colon = system: HCT-15 colon
UO-31 renal = system: UO-31 renal
T-47D breast = system: T-47D breast

Compound | TGI (NCI-H23 lung) | TGI (K-562 leukemia) | TGI (SNB-75 CNS) [µM] | TGI (786-0 renal) | TGI (SW-620 colon) | TGI (OVCAR-4 ovarian) | TGI (KM12 colon) | TGI (HCT-15 colon) | TGI (UO-31 renal) | GI50 (NCI-H23 lung) | GI50 (K-562 leukemia) | GI50 (SNB-75 CNS) [µM] | GI50 (786-0 renal) | GI50 (SW-620 colon) | GI50 (OVCAR-4 ovarian) | GI50 (KM12 colon) | GI50 (HCT-15 colon) | GI50 (UO-31 renal) | GI50 (T-47D breast) | TGI (T-47D breast) [µM]
COc1ccccc1NC(=O)C1=C(C)NC(C)=C(C(=O)Nc2ccccc2OC)C1c1cccc2ccccc12 | > 100 µM | > 100 µM | 98.8 | > 100 µM | > 100 µM | 41.5 µM | > 100 µM | > 100 µM | > 100 µM |  |  |  |  |  |  |  |  |  |  | 
CCSc1ccc([C@@H]2[C@@H](N)C(=O)N2c2cc(OC)c(OC)c(OC)c2)cc1 | > 100 µM | > 100 µM | > 100 | > 100 µM | > 100 µM | > 100 µM | > 100 µM | > 100 µM | > 100 µM | 14.3 µM | 0.0359 µM | 0.0375 | 0.08 µM | 0.0476 µM | 9.31 µM | 0.0533 µM | 0.0654 µM | 0.59 µM |  | 
COc1ccc(/C=C\c2cc(OC)c(OC)c(OC)c2)cc1OCC(=O)Nc1nc2ccccc2s1 | > 100 µM | > 100 µM | > 100 | > 100 µM | > 100 µM | > 100 µM | > 100 µM | > 100 µM | > 100 µM | 0.0966 µM | 0.0423 µM | 0.109 | 6.23 µM | 0.0359 µM | 0.476 µM | 0.0646 µM | 0.0519 µM | 0.381 µM | 1.59 µM | > 69.6
O=C1c2cccc3c(Cl)ccc(c23)C(=O)N1CCCN1CCN(CCCN2C(=O)c3cccc4c(Cl)ccc(c34)C2=O)CC1 | > 100 µM | > 100 µM | > 100 | > 100 µM | > 100 µM | > 100 µM | > 100 µM | > 100 µM | > 100 µM |  |  |  |  |  |  |  |  |  |  | 
O=c1c2c(=NCCN3CCCC3)cc3c(=O)n(CCCN4CCOCC4)c(=O)c4ccc(c(O)n1CCCN1CCOCC1)c2c4-3 | 0.627 µM | > 70.4 µM | 1.46 | 1.1 µM | 1.07 µM | 0.735 µM | 1.22 µM | 0.946 µM |  | 0.118 µM | < 0.0213 µM | 0.234 | 0.145 µM | < 0.0192 µM | 0.13 µM | 0.131 µM | < 0.0201 µM |  | 0.273 µM | 2.2
COc1cc(-c2nc(-c3ccc(-c4nc5ccc(F)cc5[nH]4)cc3)no2)cc(OC)c1OC | 8.35 µM |  | 62.4 | 17.9 µM | 16.1 µM | 11.3 µM | 8.98 µM | 12.8 µM | 6.3 µM | 2.5 µM |  | 7.74 | 3.61 µM | 3.61 µM | 2.82 µM | 3.08 µM | 3.15 µM | 2.51 µM | 2.72 µM | 7.46
ClC1c2ccccc2C2(c3ccccc3)OOC1(c1ccccc1)O2 (stereo unspecified) | 3.57 µM |  | 3.27 | 2.98 µM | 2.96 µM | 3.08 µM | 3.63 µM | 3.24 µM | 3.06 µM |  |  |  |  |  |  |  |  |  |  | 
Cc1cccc(C(C)C)c1NC(=O)CCl | 80 µM | > 100 µM | > 100 | > 100 µM | > 100 µM | 76.6 µM | > 100 µM | > 100 µM | > 100 µM |  |  |  |  |  |  |  |  |  |  | 
COc1cc(C(=O)O/N=C(\N)Cc2cccc3ccccc23)cc(OC)c1OC | 29.8 µM |  | 15.6 | 26.7 µM | 27.8 µM | 26 µM | 22.1 µM | 21.4 µM | 19.6 µM | 11.4 µM |  | 2.8 | 13.5 µM | 11.7 µM | 10.6 µM | 9.12 µM | 6.41 µM | 5.26 µM | 2.95 µM | 12.5
CC(C)CN1CC(C)C(=O)NC1=O (stereo unspecified) | > 100 µM | > 100 µM |  | > 100 µM | > 100 µM | > 100 µM | > 100 µM |  | > 100 µM |  |  |  |  |  |  |  |  |  |  | 
CCC(C)c1cccc(C)c1NC(=O)C(=O)Cc1nc2ccccc2s1 (stereo unspecified) | > 100 µM | > 100 µM | > 100 | > 100 µM | > 100 µM | > 100 µM | > 100 µM | > 100 µM | > 100 µM |  |  |  |  |  |  |  |  |  |  | 
CC(=O)Nc1ccc(-c2csc(Nc3cccc(-c4csc(-c5ccccc5)n4)c3)n2)cc1 | > 50 µM | 48.5 µM |  | > 50 µM | > 50 µM |  | > 50 µM | > 50 µM | > 50 µM | 16.5 µM | 12.6 µM |  | 21 µM | > 50 µM |  | 24 µM | 10.3 µM | 16.7 µM | 43.4 µM | > 50
CN(C)CCNC(=O)c1c2ccccc2cc2ccccc12 | > 100 µM | 67.1 µM | > 100 | > 100 µM | > 100 µM | > 100 µM | > 100 µM | > 100 µM | > 100 µM |  |  |  |  |  |  |  |  |  |  | 
Cc1ccc(/C=C/C(=O)c2ccc([N+](=O)[O-])cc2)cc1 | 99.8 µM | > 100 µM | > 100 | > 100 µM | > 100 µM | > 100 µM | > 100 µM | > 100 µM | > 100 µM |  |  |  |  |  |  |  |  |  |  | 
C=C1CCC2C(C)(CO)C(O)CCC2(C)C1C/C=C1/CCOC1=O (stereo unspecified) | > 100 µM | > 100 µM | > 100 | > 100 µM | > 100 µM | > 100 µM | > 100 µM | > 100 µM | > 100 µM |  |  |  |  |  |  |  |  |  |  | 
CN(C)C(=S)/N=c1\ss/c(=N\C(=S)N(C)C)n1Cc1ccco1 |  | > 100 µM | > 100 | > 100 µM | > 100 µM | > 100 µM | > 100 µM | > 100 µM | > 100 µM |  |  |  |  |  |  |  |  |  |  | 
c1ccc2cc(C[n+]3ccn(Cc4ccc5ccccc5n4)c3)ccc2c1 | 3.23 µM and 14.6 µM | 13.8 µM and 14.8 µM |  | 13 µM and 24.8 µM | 11.8 µM and 22.1 µM | 4.8 µM and 15.2 µM | 1.74 µM and 7.56 µM | 27.7 µM and > 100 µM | 25.4 µM and > 100 µM | 0.311 µM and 2.7 µM | 0.585 µM and 1.7 µM |  | 2.73 µM and 10.6 µM | 0.734 µM and 6.27 µM | 0.26 µM and 1.43 µM | 0.384 µM and 2.25 µM | 12.3 µM and 53.5 µM | 10.6 µM and 35.8 µM | 0.239 µM and 2.32 µM | 
